# pEC50, pKd: −log10 of the molar value. Like-named read-outs stand apart in the source and are kept apart here. No end group written: not given here.
# Key:
# [1] = test system: THP-1 cells; assay: MCP-1 induced THP-1 cell migration, Transwell assay; assay type: cell-based, human; conditions: for Max effect (maximum inhibition): Table 2, highest dose tested (1-10 μM); for Maximal inhibition of leukocyte migration: maximal / very high doses, Example 6; for Human chemokine-induced THP-1 migration assay Max effect: Table 3
# Description: Leukocyte migration was measured using the 96-well format micro Transwell® assay system from Neuroprobe (Gaithersburg, Md., USA). In principle, this assay consists of two chambers separated by a porous membrane. The chemoattractant is placed in the lower compartment and the cells are placed in the upper compartment.
# The method was performed essentially as previously described (Reckless & Grainger (1999) Biochem. J. 340:803-11).
# First, the cell suspension to be placed in the upper compartment was prepared. The THP-1 cells were pelleted by centrifugation (770×g; 4 mins) and washed with Geys Balanced Salt Solution with 1 mg/ml BSA (GBSS+BSA). This wash was then repeated, and the cells re-pelleted before being resuspended in a small volume of GBSS+BSA for counting, for example using a standard haemocytometer.
# The volume of GBSS+BSA was then adjusted depending on the number of cells present so that the cells were at final density of 4.45×10^6 cells per ml of GBSS+BSA. This ensured that there were 100,000 THP-1 cells in each 25 μl of the solution to be placed in the upper chamber of the plate.
# The suspension of THP-1 cells at 4.45×10^6 cells/ml was divided into three pots. […] To the second pot, the BSCI was added at the same concentration as in the first pot, but additionally the sstr2 antagonist was also added (for example BIM 23454 [Tulipano et al. (2002) 143:1218-24] or BIM 23627 were added at 66 nM final concentration from a stock solution in GBSS). To the third pot, GBSS+BSA plus vehicle as appropriate was added so that the volumes in three pots are equal, acting as a control.
# Next, the chemoattractant solution to be placed in the lower compartment was prepared. MCP-1 was diluted in GBSS+BSA to give a final concentration of 25 ng/ml (after all additions). Note that, as recommended by Frow et al (Med. Res. Rev. 24:276-98) this is the concentration of MCP-1 which induces maximal migration in this system. This solution was divided into three pots, as for the cell suspension. To one pot, the BSCI was added to the same final concentration as was added to the cell suspension, in the second pot the BSCI and the sstr2 antagonist were both added at the same concentration as previously added to the cell suspension, while to the remaining pot GBSS+BSA plus vehicle as appropriate was added so that the volumes in the three pots were equal.
# Once the chemoattractant solutions for the lower wells and cell solutions for the upper chambers were prepared, the migration chamber was assembled. 29 μl of the appropriate chemoattractant solution was placed into the lower well of the chamber. Assays were performed with at least triplicate determinations of each condition. Once all the lower chambers were filled, the porous membrane was applied to the chamber in accordance with the manufacturer's instructions. Finally, 25 μl of the appropriate cell solution was applied to each upper chamber. A plastic lid was placed over the entire apparatus to prevent evaporation.
# The assembled chamber was incubated at 37° C., 5% CO2, for 2 hours.
# At the end of the incubation, the liquid cell suspension was gently removed from the upper chamber, 20 μl of ice-cold 20 mM EDTA in PBS was added to the upper chamber, and the apparatus was incubated at 4° C. for 15 mins. This procedure caused any cells adhering to the underside of the membrane to fall into the lower chamber.
# After this incubation the filter was carefully flushed with GBSS+BSA to wash off the EDTA, and then the filter was removed.
# The number of cells migrated into the lower chamber under each condition can then be determined by a number of methods, including direct counting, labelling with fluorescent or radioactive markers or through the use of a vital dye. Typically, we utilised the vital dye MTT.
# [2] = test system: platelets; assay: ADP-mediated platelet activation/aggregation; assay type: cell-based
# [3] = test system: 5HT2a; conditions: rodents; cited from earlier work
# [4] = molecular target: T1, sstr2 (Homo sapiens, UniProt P30874); assay: Equilibrium binding of [3H]-BN83250 to THP-1 cells
# T1 construct: with 1×10^6 THP-1 cells in Gey's Balanced Salt Solution; endogenous in cells; host or cells: THP-1 cells (whole cells, 4° C.)
# T1 sequence (P30874 whole entry): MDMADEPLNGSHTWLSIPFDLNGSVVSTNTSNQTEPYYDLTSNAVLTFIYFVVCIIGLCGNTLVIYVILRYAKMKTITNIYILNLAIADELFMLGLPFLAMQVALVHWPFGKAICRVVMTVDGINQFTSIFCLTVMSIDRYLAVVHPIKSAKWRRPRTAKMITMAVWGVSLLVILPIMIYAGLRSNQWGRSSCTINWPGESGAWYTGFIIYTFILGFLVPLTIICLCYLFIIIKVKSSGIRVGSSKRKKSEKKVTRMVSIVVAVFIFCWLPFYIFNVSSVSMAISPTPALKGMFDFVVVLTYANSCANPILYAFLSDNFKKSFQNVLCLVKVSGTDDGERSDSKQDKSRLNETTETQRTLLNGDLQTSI
# Description: Methods: [^3H]-BN83250 was synthesesized from (S,E)-3-(2′,2′-dimethyldodec-4′-enoylamino)-caprolactam by catalytic hydrogenation using tritium gas over a palladium catalyst (CRB Ltd, Cleveland, UK), yielding the tritiated product at a concentration of […] in ethanol with a specific activity of 220 Ci/mmol. The (S,E)-3-(2′,2′-dimethyldodec-4′-enoylamino)-caprolactam was prepared as follows: (S,S)-3-amino-caprolactam hydro-pyrrolidine-5-carboxylate (10 mmol) and Na2CO3 (30 mmol) in water (30 ml) were added to a solution of 2,2-dimethyl-dodec-4-enoyl chloride (10 mmol) in dichloromethane (30 ml) at ambient temperature and the reaction was stirred for 12 hours. The organic layer was then separated and the aqueous phase was extracted with additional dichloromethane (2×25 ml). The combined organic layers were dried over Na2CO3 and reduced in vacuo. The residue was purified by silica column chromatography (1:1 EtOAc:hexanes to EtOAc) to give […]-3-(2′,2′-dimethyl-dodec-4′-enoyl)amino-caprolactam as a colourless oil (2.12 g, 63%). The radiolabelled compound was stored in the dark at 4° C. until required. Prior to use the specific activity was adjusted by addition of unlabelled BN83250.
# For the analysis of binding, individual reactions were set up (in triplicate for each condition), with 1×10^6 THP-1 cells in Gey's Balanced Salt Solution, 10 nM [^3H]-BN83250 (at 50 Ci/mmol) and various concentrations of (S)-3(2′2′-dimethylpropionoylamino)-tetrahydropyridin-2-one (10 pM to 10 μM). Excess (100 μM) unlabelled BN83250 was used to determine the level of non-specific binding. After 2 hours at 4° C. (conditions previously shown to achieve equilibrium binding, and which prevent uptake of the radioligand that would result in an over-estimate of binding) excess label was washed away by centrifugation (3 washes with 5 ml of Gey's Balanced Salt Solution) and the bound radioactivity was determined by scintillation counting of the solubilised cell pellet.
# [5] = test system: fetal rat pituicytes; assay: Rat pituicyte GH suppression assay; assay type: cell-based; conditions: for pEC50 / Rat pituicyte GH suppression assay Max effect: Table 3; for pEC50: read-out: Rat pituicyte GH suppression assay ED50; for Rat pituicyte GH suppression assay Max effect: suppression compared to vehicle
# From the text: (§1) Two different assays for “classical” sstr2 functions were adopted: (1) cultured foetal rat pituitary cells secreted growth hormone which is inhibited by sstr2 agonists in a dose-dependent fashion and (2) selected glucose-sensitive sub-clones of the human Panc-1 cell line secrete insulin which is inhibited by sstr2 agonists in a dose-dependent fashion.
# Methods: Cultures of fetal rat pituicytes were established exactly as previously described (Murray et al. (2004) J. Clin. Endocrinol. Metab. 89:3027-32) by enzymatic dispersion. After 48 hrs in low glucose DMEM plus 10% FCS, cells in 48 well plates (5×10^4 cells per well) were washed for 4 hrs in serum-free DMEM and then incubated with test agents at various concentrations for a further 24 hrs in serum-free DMEM. At the end of this period, the conditioned medium was harvested, any cell debris removed by centrifugation and assayed for GH using a commercially available ELISA (Linco; cat# EZRMGH-45K) in accordance with the manufacturer's instructions.
# (§2) Results were reported as the mean±SD, expressed as the fold change from cells in the presence of vehicle only.
# [6] = test system: Panc-2H4 cells; assay: Human Panc-2H4 insulin suppression assay; assay type: cell-based; conditions: for Human Panc-2H4 insulin suppression assay Max effect: suppression compared to vehicle
# From the text: as §1
# Glucose-sensitive sub-clones of the human Panc-1, a cell line derived from a pleiomorphic epithelioid carcinoma of the exocrine pancreas, were obtained essentially as described by Hamil et al. (2008) Biomed. Sci. Instrum. 44:441-6. Briefly, Panc-1 cells were subcultured in 24 well plates, and the medium was supplemented with an additional 5% glucose. […] The resulting sub-lines were then tested for glucose sensitivity by preparing wells of a 96-well plate (5×10^4 cells per well) which were then exposed to cultured medium containing a range of glucose concentrations (low glucose DMEM, DMEM, DMEM+1% glucose, DMEM+2.5% glucose and DMEM+5% glucose). After 24 hrs incubation, the conditioned medium was collected and assayed for insulin secretion by ELISA (Linco; cat# EZHI-14K) in accordance with the manufacturer's instructions.
# Further 96 well plates were prepared using Panc-2H4 (5×10^4 cells per well) in DMEM. After 24 hrs, the medium was switched to DMEM+5% glucose containing various test agents at various concentrations (triplicate wells per condition). After a further 24 hrs, the conditioned medium was harvested and the concentration of insulin was determined by ELISA as described above.
# as §2
# [7] = test system: rat peripheral blood leukocytes; assay: Rat chemokine-induced PBMC migration assay; assay type: cell-based; conditions: Table 3
# [8] = test system: Jurkat T cells; assay: SDF-1α induced migration of parental Jurkat T cells; assay type: cell-based, human
# Description: Results: The level of the SDF-1α, receptor CXCR4 was similar on Jurkat-D3B and the parental Jurkat T cell line. Furthermore, the Jurkat-D3B cells responded to SDF-1α in a Transwell® chemotaxis assay (see Example 1 for the methodology employed) over a similar concentration range to the parental cell line.
# Jurkat T cells and Jurkat-D3B cells were induced to migrate in response to 100 ng/ml SDF-1α (R&D systems; the concentration of SDF-1α which induced maximal cell migration in both lines). The BSCI BN83250 was then added at various concentrations between 0 nM and 1000 nM (each in triplicate) to both the upper and lower compartments (at the same concentration in each compartment, so as not to create a gradient of BSCI concentration). DMSO (1% final concentration) was used as the vehicle, and was present in all wells at equal concentration.
# [9] = Table 3, read-out: Human Panc-2H4 insulin suppression assay ED50
molecule,measurement,setting,value
Sst-28: alternatively processed sst28 natural ligand,Max effect (maximum inhibition),[1],40-60%
same,Maximal inhibition of leukocyte migration,[1],40-60%
CC(C)C[C@H]1C(=O)N2CCC[C@H]2[C@]2(O)O[C@](NC(=O)[C@@H]3C[C@@H]4c5cccc6[nH]cc(c56)C[C@H]4N(C)C3)(C(C)C)C(=O)N12 [dihydroergocryptine],Effect on ADP-mediated platelet activation/aggregation,[2],significant potentiate ADP-mediated platelet aggregation
CCN(CC)C(=O)[C@@H]1C=C2c3cccc4[nH]cc(c34)C[C@H]2N(C)C1 [LSD],Head twitching by classical 5HT2a agonists,[3],induce this classical effect
"O=C1NCCCC[C@@H]1NC(=O)C12CC3CC(CC(C3)C1)C2 [BN83470, (S)-3-(admantane-1′-carbonylamino)-caprolactam]",Human chemokine-induced THP-1 migration assay Max effect,[1],100%
same,"Competition with BN83250 binding to sstr2, in words",[4],compete with BN83250 binding to sstr2 to a similar extent
same,"Inhibition of GH release, in words",[5],inhibited GH release only at much higher concentrations
same,pEC50,[5],6.57
same,Rat pituicyte GH suppression assay Max effect,[5],56%
same,pEC50,[6]; [9],< 6.00
same,Human Panc-2H4 insulin suppression assay Max effect,[6]; Table 3,<10%
same,Rat chemokine-induced PBMC migration assay Max effect,[7],100%
CN(C)CCc1c[nH]c2cccc(O)c12 [psilocin],Head twitching by classical 5HT2a agonists,[3],induce this classical effect
C[C@@H](N)Cc1c2ccoc2c(Br)c2ccoc12 [Bromo-DragonFLY],Head twitching by classical 5HT2a agonists,[3],induce this classical effect
"C[C@@H](c1c[nH]c2ccccc12)[C@@H](NC(=O)N1CCC(n2c(=O)[nH]c3ccccc32)CC1)C(=O)NC[C@@H]1CCC[C@H](CN)C1 [L-779,976]",Human chemokine-induced THP-1 migration assay Max effect,[1],65%
same,Chemokine-induced THP-1 cell migration assay (“BSCI” target) Max Effect,[1]; Table 4,65%
same,Chemokine-induced THP-1 cell migration assay (“BSCI” target) Max Effect,[1]; Table 5,65%
same,pEC50,[5],8.54
same,Rat pituicyte GH suppression assay Max effect,[5],55%
same,pEC50,[6]; [9],7.77
same,Human Panc-2H4 insulin suppression assay Max effect,[6]; Table 3,40%
same,Panc-2H4 insulin suppression assay (“classical” target) Max Effect,[6]; Table 4,40%
same,pEC50,"[6]; Table 4, 0.01 nM to 1,000 nM, DMSO 1%, read-out: Panc-2H4 insulin suppression assay (“classical” target) ED50",7.77
same,Panc-2H4 insulin suppression assay (“classical” target) Max Effect,[6]; Table 5,40%
same,pEC50,"[6]; Table 5, read-out: Panc-2H4 insulin suppression assay (“classical” target) ED50",7.77
CC1(C(=O)N[C@H]2CCCCNC2=O)CCCCC1 [(S)-3-(1′-methylcyclohexyl-1′-carbonylamino)-caprolactam],"Competition with BN83250 binding to sstr2, in words",[4],compete with BN83250 binding to sstr2 to a similar extent
COc1cc(CCN)cc(OC)c1OC [mescaline],Head twitching by classical 5HT2a agonists,[3],induce this classical effect
"Cortistatin: more recently described somatostatin analog (DRMPCRNFFWKTFSSCK; ends and bridges not checked; cysteine pairing not given here; UniProt O00230 89-105, looked up)",Max effect (maximum inhibition),[1],40-60%
same,Maximal inhibition of leukocyte migration,[1],~50%
COC(=O)[C@@H]1[C@H]2C[C@H]3c4[nH]c5ccccc5c4CCN3C[C@@H]2CC[C@@H]1O [yohimbine],"Inhibition of SDF-1α induced migration of Jurkat T cells, in words",[8],neither agent inhibits
same,Effect on ADP-mediated platelet activation/aggregation,[2],significant potentiate ADP-mediated platelet aggregation
Clc1cccc(Cl)c1N=C1NCCN1 [clonidine],Effect on ADP-mediated platelet activation/aggregation,[2],significant potentiate ADP-mediated platelet aggregation
"[3H]C(CCCCCCC)C([3H])CC(C)(C)C(=O)N[C@H]1CCCCNC1=O (stereo partly drawn) [[^3H]-BN83250, 4′,5′-^3[H] (S)-3-(2′,2′-dimethyldodecanoyl)amino-caprolactam]",Binding sites per cell,[4]; THP-1 cells,"100,000 to 200,000 sites per cell"
same,pKd,"[4]; THP-1 cells, 2 hours at 4° C., read-out: Affinity (Scatchard analysis)",~7.10
